Measured values from patent US5494803A, “Immunodiagnostic assay using liposomes carrying labels thereof on outer liposome surface” (North Carolina State University, priority 1994, dated 1996).

Experiments:
[1] = target: anti-biotin antibody (ABA); test: C^14-biotin adsorption to antibody-coated PMMA slides (radioimmunoassay isotherm, Langmuir fit); type: binding
Description: The adsorption of biotin to the antibody-coated PMMA surface was studied by exposing the surfaces to C^14 -labeled biotin, washing the slides, and determining the amount of radioactivity remaining on the solid support at different initial concentrations of biotin in the bulk solution. Four PMMA slides (1.5 cm×1.5 cm) coated with antibody, as described above, were incubated in 10 ml of C^14 -biotin PBS solutions in the concentration range from 10^-8 to 10^-4 M. After a ninety minute exposure, the slides were dipped quickly in 200 ml of deionized water to remove unbound C^14 -biotin from the surface. The radioactivity of the slides was determined by scintillation counting. […] As a control, the non-specific adsorption of C^14 -biotin to PMMA alone and to BSA-covered PMMA was tested the same way, using a C^14 -biotin concentration of 10^-4 M.
The ability of the antibody-covered surface to bind biotin based on the results of radioimmunoassays is indicated by the isotherm shown in FIG. 3. The number of moles of biotin bound per unit area of surface is shown as a function of the initial concentration of biotin to which the surface was exposed. […] Assuming that each antibody molecule adsorbed to the surface can bind two biotin molecules, this corresponds to 0.88×10^-12 moles of active ABA/cm^2. […]
The quantity av is the ratio (A/V) which equals 1.88 cm^-1 in these experiments. […]

[2] = tested on: anti-biotin antibody (ABA)
Description: The adsorption of fluorescent biotin-conjugated liposomes and FITC-Biotin to the surface of the PMMA cuvettes was studied by measuring the amount of fluorescence remaining on the surface of the cuvette after exposure to a known concentration of fluorescent species and a washing step with PBS. One milliliter of solution containing fluorescent species was injected into the inlet of the cuvette 27 with a syringe, and the solution was allowed to stand in the cuvette for either half an hour or an hour, depending on the experiment. Unbound fluorescent molecules were then washed from the cuvette by pumping PBS with a peristaltic pump at a flow rate of 1 /min. After washing, the shutter 22 on the laser 21 was opened for a few seconds, until the digital reading on the photomultiplier tube counter 30 stabilized. This was recorded as the fluorescent signal in kilo-counts per second (KCPS) coming from the interface. […] This was done when it was necessary to investigate the role of the washing step in reducing the measured fluorescence signal. […]
The maximum signal obtained for adsorbed vesicles, at very high molar concentrations of liposomes, is approximately 1250 KCPS. The quantity λL is estimated by taking the measured fluorescence at a given set of concentrations, and dividing by the maximum signal value for full surface coverage.

Anti-Biotin Antibody = conditions: half-hour exposure, ten-minute PBS wash
Description: PMMA cuvettes were cleaned by sonication for twelve hours in RBS solution, followed by sonication in deionized water for twenty-four hours. The cuvettes were incubated in 0.2 ml of 40 μg/ml of anti-biotin antibody (ABA) solution in PBS for two hours at room temperature and rinsed with 0.4 ml PBS twice to remove unbound antibody. The cuvettes were then incubated in 0.2 ml of 3 weight % BSA solution in PBS as a blocking agent for one hour at room temperature, and rinsed twice with 0.4 ml of PBS. […]
A manual shutter 22 was attached to the laser so that essentially no light would reach the sample when the shutter was closed. […] The emitted fluorescence was detected by a photomultiplier tube 29 (Hamamatsu Co., Hamamatsu, Japan). A 520 nm filter 28 was placed on top of the tube so that only the emitted light from fluorescein would be measured. The output from the photomultiplier 29 was sent to a preamplifier, not shown, (Model C716, Hamamatsu) and recorded using a digital photon counter 30 (Model C1230, Hamamatsu). […]
The adsorption of fluorescent biotin-conjugated liposomes and FITC-Biotin to the surface of the PMMA cuvettes was studied by measuring the amount of fluorescence remaining on the surface of the cuvette after exposure to a known concentration of fluorescent species and a washing step with PBS. […]

Row | Compound | Kd ([1]; Langmuir isotherm best fit, PMMA coated with ABA, blocked with BSA, PBS, read-out: equilibrium binding constant K (KB) of biotin on adsorbed ABA (converted)) [nM] | saturation level of biotin bound per unit area of surface ([1]; biotin concentrations greater than 10^-4 M) | free biotin concentration at which the decrease in fluorescence commences (experimental) ([2]; liposomes 0.01 or 0.03 mg/ml) | free biotin concentration at which fluorescence should decrease significantly (simple Langmuir model) ([2]; predicted from KB and KL) | association constant of FITC-Biotin to ABA (in words) (Anti-Biotin Antibody)
1 | O=C(O)CCCC[C@@H]1SC[C@@H]2NC(=O)N[C@@H]21 [biotin] | 400 | approximately 1.8×10^-12 moles of biotin/cm^2 | approximately 2×10^-5 M | approximately 4×10^-7 M | –
2 | fluorescein isothiocyanate-biotin [FITC-Biotin] | – | – | – | – | very low association constant
